# Assay results published in patent US7528274B2, “Acylthiols and component thiol compositions as anti-HIV and anti-retroviral agents” (The United States of America as represented by the …, priority 2001, dated 2009).
# Test system: not listed separately
# Assay: XTT assay, cytotoxicity (cellular growth inhibition) in CEM-SS cells
# Assay type: cell-based
# Settings: human
# Source text: (§1) One exemplary means to determine antiviral activity is with CEM-SS cells and virus (e.g., HIV-1RF) (MOI=0.01) using the XTT (2,3-bis[2-methoxy-4-nitro-5-sulfophenyl]-5-[(phenylamino)carbonyl]-2H-tetrazolium hydroxide) cytoprotection assay, as described by Rice (1993) PNAS 90:9721-9724, and Rice (1997) Antimicrob. Agents Chemother. […] Briefly, cells are infected with HIV-1RF (or other virus to be tested) in the presence of various dilutions of test compounds or control compounds. The cultures are incubated for seven days. […] The cell death is measured by XTT dye reduction. XTT is a soluble tetrazolium dye that measures mitochondrial energy output, similar to MTT. […] Individual assays are done in duplicate using a sister plate method.
# as §1, with “{2,3-bis[2-methoxy-4-nitro-5-sulfophenyl]-5- -[(phenylamino)carbonyl]-2H-tetrazolium hydroxide}” for “(2,3-bis[2-methoxy-4-nitro-5-sulfophenyl]-5-[(phenylamino)carbonyl]-2H-tetrazolium hydroxide)”, “Proc. Natl. Acad. Sci. USA 90: 9721-9724,” for “PNAS 90:9721-9724,”, “Agents &” for “Agents”, “and controls.” for “or control compounds.”, “method. […] Compound numbers therein refer to the numbers used in FIG. 1.” for “method.”
row,SMILES,IC50 at 7 days [µM]
1,NC(=O)CCNC(=O)c1ccccc1SC(=O)c1ccccc1 [Compound 8],676
2,COc1ccccc1C(=O)Sc1ccccc1C(=O)NCCC(N)=O [Compound 9],790
3,COc1cc(C(=O)Sc2ccccc2C(=O)NCCC(N)=O)cc(OC)c1OC [Compound 10],> 200
4,COc1ccc(C(=O)Sc2ccccc2C(=O)NCCC(N)=O)cc1 [Compound 13],42
5,COc1cccc(C(=O)Sc2ccccc2C(=O)NCCC(N)=O)c1 [Compound 14],666
6,CC(C)(C)C(=O)Sc1cccc(C(=O)NCCC(N)=O)c1 [Compound 17],112
7,NC(=O)CCNC(=O)c1cccc(SC(=O)c2cccnc2)c1 [Compound 18],> 1000
8,NC(=O)CCNC(=O)c1ccccc1SC(=O)c1cccnc1 [Compound 19],461
9,Cc1cccc(C(=O)Sc2ccccc2C(=O)NCCC(N)=O)c1 [Compound 20],135
10,Cc1ccc(C(=O)Sc2ccccc2C(=O)NCCC(N)=O)cc1 [Compound 21],197
11,Cc1cc(C)c(C(=O)Sc2ccccc2C(=O)NCCC(N)=O)c(C)c1 [Compound 24],> 200
12,NC(=O)CCNC(=O)c1ccc(Cl)cc1SC(=O)c1cccnc1 [Compound 25],573
13,NC(=O)CCNC(=O)c1ccc(Cl)cc1SC(=O)Cc1ccccc1 [Compound 26],35
14,CC(C)COC(=O)Sc1ccccc1C(=O)N[C@H](C)C(N)=O [Compound 77],230
15,NS(=O)(=O)c1ccc(CNC(=O)c2ccccc2SC(=O)Oc2ccc([N+](=O)[O-])cc2)cc1 [Compound 78],57
16,NC(=O)CNC(=O)c1ccccc1SC(=O)OCCCCCl [Compound 80],200
17,C[C@H](NC(=O)c1ccccc1SC(=O)OCCCCCl)C(N)=O [Compound 81],200
18,C[C@@H](NC(=O)c1ccccc1SC(=O)OCCCCCl)C(N)=O [Compound 82],200
19,CCC(C)C(NC(=O)c1ccccc1SC(=O)OCCCCCl)C(N)=O (stereo not shown) [Compound 83],128
20,NS(=O)(=O)c1ccc(CNC(=O)c2ccccc2SC(=O)OCCCCCl)cc1 [Compound 84],64.4
21,NC(=O)CNC(=O)c1ccccc1SC(=O)NCCCCl [Compound 85],110
22,C[C@H](NC(=O)c1ccccc1SC(=O)NCCCCl)C(N)=O [Compound 86],112
23,C[C@@H](NC(=O)c1ccccc1SC(=O)NCCCCl)C(N)=O [Compound 87],11.4
24,NS(=O)(=O)c1ccc(CNC(=O)c2ccccc2SC(=O)NCCCCl)cc1 [Compound 88],9

# Test system: HIV-1RF
# Assay: XTT cytoprotection assay, CEM-SS cells infected with HIV-1RF
# Assay type: cell-based
# Settings: HIV-1RF, CEM-SS cells
# Source text: as §1
# as §1, with “{2,3-bis[2-methoxy-4-nitro-5-sulfophenyl]-5- -[(phenylamino)carbonyl]-2H-tetrazolium hydroxide}” for “(2,3-bis[2-methoxy-4-nitro-5-sulfophenyl]-5-[(phenylamino)carbonyl]-2H-tetrazolium hydroxide)”, “Proc. Natl. Acad. Sci. USA 90: 9721-9724,” for “PNAS 90:9721-9724,”, “Agents &” for “Agents”, “and controls.” for “or control compounds.”, “method. […] Compound numbers therein refer to the numbers used in FIG. 1.” for “method.”
row,SMILES,Therapeutic Index
1,NC(=O)CCNC(=O)c1ccccc1SC(=O)c1ccccc1 [Compound 8],205
2,COc1ccccc1C(=O)Sc1ccccc1C(=O)NCCC(N)=O [Compound 9],298
3,COc1cc(C(=O)Sc2ccccc2C(=O)NCCC(N)=O)cc(OC)c1OC [Compound 10],>53
4,COc1ccc(C(=O)Sc2ccccc2C(=O)NCCC(N)=O)cc1 [Compound 13],11
5,COc1cccc(C(=O)Sc2ccccc2C(=O)NCCC(N)=O)c1 [Compound 14],251
6,NC(=O)CCNC(=O)c1cccc(SC(=O)c2cccnc2)c1 [Compound 18],>6.7
7,NC(=O)CCNC(=O)c1ccccc1SC(=O)c1cccnc1 [Compound 19],161
8,Cc1cccc(C(=O)Sc2ccccc2C(=O)NCCC(N)=O)c1 [Compound 20],38
9,Cc1ccc(C(=O)Sc2ccccc2C(=O)NCCC(N)=O)cc1 [Compound 21],38
10,NC(=O)CCNC(=O)c1ccc(Cl)cc1SC(=O)c1cccnc1 [Compound 25],18
11,NC(=O)CCNC(=O)c1ccc(Cl)cc1SC(=O)Cc1ccccc1 [Compound 26],14
12,CC(C)COC(=O)Sc1ccccc1C(=O)N[C@H](C)C(N)=O [Compound 77],168
13,NS(=O)(=O)c1ccc(CNC(=O)c2ccccc2SC(=O)Oc2ccc([N+](=O)[O-])cc2)cc1 [Compound 78],36
14,NC(=O)CNC(=O)c1ccccc1SC(=O)OCCCCCl [Compound 80],65
15,C[C@H](NC(=O)c1ccccc1SC(=O)OCCCCCl)C(N)=O [Compound 81],97
16,C[C@@H](NC(=O)c1ccccc1SC(=O)OCCCCCl)C(N)=O [Compound 82],68
17,CCC(C)C(NC(=O)c1ccccc1SC(=O)OCCCCCl)C(N)=O (stereo not shown) [Compound 83],59
18,NS(=O)(=O)c1ccc(CNC(=O)c2ccccc2SC(=O)OCCCCCl)cc1 [Compound 84],27
19,NC(=O)CNC(=O)c1ccccc1SC(=O)NCCCCl [Compound 85],153
20,C[C@H](NC(=O)c1ccccc1SC(=O)NCCCCl)C(N)=O [Compound 86],140
21,C[C@@H](NC(=O)c1ccccc1SC(=O)NCCCCl)C(N)=O [Compound 87],16
22,NS(=O)(=O)c1ccc(CNC(=O)c2ccccc2SC(=O)NCCCCl)cc1 [Compound 88],19

# Same assay, conditions: Human immunodeficiency virus 1, 168 h, read-out: EC50 (50% cytoprotection); HIV-1RF, CEM-SS cells, seven days, XTT
row,SMILES,EC50 [µM]
1,NC(=O)CCNC(=O)c1cccc(SC(=O)c2cccnc2)c1 [Compound 18],149
2,NC(=O)CCNC(=O)c1ccccc1SC(=O)c1cccnc1 [Compound 19],2.9
3,NS(=O)(=O)c1ccc(CNC(=O)c2ccccc2SC(=O)Oc2ccc([N+](=O)[O-])cc2)cc1 [Compound 78],1.58
4,NC(=O)CNC(=O)c1ccccc1SC(=O)OCCCCCl [Compound 80],3.07
5,C[C@H](NC(=O)c1ccccc1SC(=O)OCCCCCl)C(N)=O [Compound 81],2.07
6,C[C@@H](NC(=O)c1ccccc1SC(=O)OCCCCCl)C(N)=O [Compound 82],2.94
7,NC(=O)CNC(=O)c1ccccc1SC(=O)NCCCCl [Compound 85],0.72
8,C[C@@H](NC(=O)c1ccccc1SC(=O)NCCCCl)C(N)=O [Compound 87],0.71
9,NS(=O)(=O)c1ccc(CNC(=O)c2ccccc2SC(=O)NCCCCl)cc1 [Compound 88],0.48

# More lines, now with the values ahead:
row,EC50 [µM],SMILES
1,3.3,NC(=O)CCNC(=O)c1ccccc1SC(=O)c1ccccc1 [Compound 8]
2,2.7,COc1ccccc1C(=O)Sc1ccccc1C(=O)NCCC(N)=O [Compound 9]
3,3.8,COc1cc(C(=O)Sc2ccccc2C(=O)NCCC(N)=O)cc(OC)c1OC [Compound 10]
4,3.7,COc1ccc(C(=O)Sc2ccccc2C(=O)NCCC(N)=O)cc1 [Compound 13]
5,2.6,COc1cccc(C(=O)Sc2ccccc2C(=O)NCCC(N)=O)c1 [Compound 14]
6,> 100,CC(C)(C)C(=O)Sc1cccc(C(=O)NCCC(N)=O)c1 [Compound 17]
7,3.6,Cc1cccc(C(=O)Sc2ccccc2C(=O)NCCC(N)=O)c1 [Compound 20]
8,5.2,Cc1ccc(C(=O)Sc2ccccc2C(=O)NCCC(N)=O)cc1 [Compound 21]
9,31.8,NC(=O)CCNC(=O)c1ccc(Cl)cc1SC(=O)c1cccnc1 [Compound 25]
10,2.5,NC(=O)CCNC(=O)c1ccc(Cl)cc1SC(=O)Cc1ccccc1 [Compound 26]
11,1.37,CC(C)COC(=O)Sc1ccccc1C(=O)N[C@H](C)C(N)=O [Compound 77]
12,2.16,CCC(C)C(NC(=O)c1ccccc1SC(=O)OCCCCCl)C(N)=O (stereo not shown) [Compound 83]
13,2.36,NS(=O)(=O)c1ccc(CNC(=O)c2ccccc2SC(=O)OCCCCCl)cc1 [Compound 84]
14,0.8,C[C@H](NC(=O)c1ccccc1SC(=O)NCCCCl)C(N)=O [Compound 86]

# Same assay, conditions: read-out: EC50 (50% cytoprotection); HIV-1RF, CEM-SS cells, seven days, XTT
row,EC50 [µM],SMILES
1,0.81,NC(=O)C1CN1C(=O)c1ccccc1SC(=O)NC1CCCC1 (stereo not shown) [Compound 132]
